One assay deals with SOS1/KRAS WT (Homo sapiens (Human), UniProt Q07889). The experiment in a line: SOS1/KRAS WT HTRF binding assay (FRET-based protein-protein interaction). The following applies: inhibition of His6-SOS1 (aa564-1049, 40 nM) binding to GST-KRAS-WT (aa1-188, 40 nM); at least two independent replicates. The method, boiled down:
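GST-KRAS WT (aa1-188, 40 nM) and His6-SOS1 exchange domain (aa564-1049, 40 nM) were incubated 60 min at room temperature with compound dose response in HEPES pH7.3 buffer with 10 mM EDTA and 100 mM KF. Anti-GST-Eu(K)/anti-6His-XL665 HTRF was read after 4 hr, and IC50 came from a four-parameter fit (≥2 replicates).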
(In TR-FRET formats the signal depends on donor and acceptor labels being close together.)
Sequence of SOS1/KRAS WT (Q07889 564-1049): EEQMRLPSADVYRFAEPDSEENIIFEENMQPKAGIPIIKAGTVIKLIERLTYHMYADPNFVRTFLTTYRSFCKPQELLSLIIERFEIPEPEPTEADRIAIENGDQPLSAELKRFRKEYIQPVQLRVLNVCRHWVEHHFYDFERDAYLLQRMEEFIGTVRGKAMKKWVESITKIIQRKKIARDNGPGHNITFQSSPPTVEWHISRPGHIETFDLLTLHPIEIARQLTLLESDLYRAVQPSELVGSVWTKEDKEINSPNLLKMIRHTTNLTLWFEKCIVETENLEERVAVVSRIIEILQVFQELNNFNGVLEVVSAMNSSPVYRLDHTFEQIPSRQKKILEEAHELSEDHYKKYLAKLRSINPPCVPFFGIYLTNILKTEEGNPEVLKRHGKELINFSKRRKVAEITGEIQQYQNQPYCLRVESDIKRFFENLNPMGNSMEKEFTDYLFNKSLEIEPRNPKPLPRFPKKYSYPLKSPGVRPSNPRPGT
For the molecule `COCC1(C)C(=O)N(C)c2cc3c(N[C@H](C)c4cccc(C(F)(F)C(C)(C)O)c4)nnc(C)c3cc21` (stereo partly drawn) [Compound 91, D8-[[(1R)-1-[3-(1,1-difluoro-2-hydroxy-2-methyl-propyl)phenyl]ethyl]amino]-3-(methoxymethyl)-1,3,5-trimethyl-pyrrolo[3,2-g]phthalazin-2-one], the “SOS1/KRAS WT HTRF Binding assay pIC50” value worked out at 7.75.

The assay is the same for the next values; noted with them: inhibition of His6-SOS1 (aa564-1049, 40 nM) binding to GST-KRAS-WT (aa1-188, 40 nM); at least two independent replicates; read-out: SOS1/KRAS WT HTRF Binding assay pIC50 (converted).
On to `Cc1nnc(N[C@H](C)c2cccc(C(F)(F)C(C)(C)O)c2)c2cc3c(cc12)C1(CCCC1)C(=O)N3C` [Compound 188, 1′,5′-dimethyl-8′-[[(1R)-1-[3-(1,1-difluoro-2-hydroxy-2-methyl-propyl)phenyl]ethyl]amino]spiro [cyclopentane-1,3′-pyrrolo[2,3-g]phthalazine]-2′-one], for which the IC50 was 9.33 nM.
For the molecule `CCn1c(=O)n(C)c2cc3c(C)nnc(N[C@H](C)c4cccc(C(F)(F)CO)c4F)c3cc21` [Compound 19, 3-ethyl-1,8-dimethyl-5-[[(1R)-1-[3-(1,1-difluoro-2-hydroxy-ethyl)-2-fluoro-phenyl]ethyl]amino]imidazo[4,5-g]phthalazin-2-one], the IC50 is 9.12 nM.
For the molecule `Cc1c(C2CC2)cccc1[C@@H](C)Nc1nnc(C)c2cc3c(cc12)n(C)c(=O)n3C` [Compound 154, 1,3,8-trimethyl-5-[[(1R)-1-(3-cyclopropyl-2-methyl-phenyl)ethyl]amino]imidazo[4,5-g]phthalazin-2-one], the IC50 is 15.8 nM.
The same measure, in the same setting: the figure for `COC1(C)C(=O)N(C)c2cc3c(C)nnc(N[C@H](C)c4cccc(C(F)(F)CO)c4C)c3cc21` (stereo partly drawn) [Compound 177, 3-methoxy-1,3,8-trimethyl-5-[[(1R)-1-[3-(1,1-difluoro-2-hydroxy-ethyl)-2-methyl-phenyl]ethyl]amino]pyrrolo[3,2-g]phthalazin-2-one] is 9.77 nM.
Regarding `COC1(C)C(=O)N(C2CC2)c2cc3c(N[C@H](C)c4cccc(C(F)(F)C(C)(C)O)c4F)nnc(C)c3cc21` (stereo partly drawn) [Compound 139, 1-cyclopropyl-3-methoxy-3,5-dimethyl-8-[[(1R)-1-[3-(1,1-difluoro-2-hydroxy-2-methyl-propyl)-2-fluoro-phenyl]ethyl]amino]pyrrolo[2,3-g]phthalazin-2-one], the IC50 is 11 nM.
On the same count and under the same terms, for `Cc1nnc(N[C@H](C)c2cccc(C(F)(F)CO)c2)c2cc3c(cc12)n(C)c(=O)n3C(C)(C)C` [Compound 80, 3-tert-butyl-1,8-dimethyl-5-[[(1R)-1-[3-(1,1-difluoro-2-hydroxy-ethyl)phenyl]ethyl]amino]imidazo [4,5-g]phthalazin-2-one] the value was 6.17 nM; for `CCN1C(=O)C(C)(OC)c2cc3c(C)nnc(N[C@H](C)c4cccc(C(F)(F)C(C)(C)O)c4F)c3cc21` (stereo partly drawn) [Compound 170, 1-ethyl-3-methoxy-3,5-dimethyl-8-[[(1R)-1-[3-(1,1-difluoro-2-hydroxy-2-methyl-propyl)-2-fluoro-phenyl]ethyl]amino]pyrrolo[2,3-g]phthalazin-2-one], 9.12 nM.
With `CCC1(OC)C(=O)N(C)c2cc3c(N[C@H](C)c4cccc(C(F)(F)C(C)(C)O)c4C)nnc(C)c3cc21` (stereo partly drawn) [Compound 209, 3-ethyl-3-methoxy-1,5-dimethyl-8-[[(1R)-1-[3-(1,1-difluoro-2-hydroxy-2-methyl-propyl)-2-methyl-phenyl]ethyl]amino]pyrrolo[2,3-g]phthalazin-2-one], the IC50 is 9.55 nM.
In the case of `CCOC1(C)C(=O)N(C)c2cc3c(N[C@H](C)c4cccc(C(F)(F)CO)c4F)nnc(C)c3cc21` (stereo partly drawn) [Compound 135, 3-ethoxy-1,3,5-trimethyl-8-[[(1R)-1-[3-(1,1-difluoro-2-hydroxy-ethyl)-2-fluoro-phenyl]ethyl]amino]pyrrolo[2,3-g]phthalazin-2-one], the IC50 was 10 nM.
Turning to `CCn1c(=O)n(C)c2cc3c(C)nnc(N[C@H](C)c4cccc(C(F)(F)F)c4)c3cc21` [Compound 9, 3-ethyl-1,8-dimethyl-5-[[(1R)-1-[3-(trifluoromethyl)phenyl]ethyl]amino] imidazo[4,5-g]phthalazin-2-one], the IC50 was 12 nM.
`Cc1nnc(N[C@H](C)c2cccc(C(F)F)c2F)c2cc3c(cc12)n(C)c(=O)n3C(C)(C)C` [Compound 27, 3-tert-butyl-1,8-dimethyl-5-[[(1R)-1-[3-(difluoromethyl)-2-fluoro-phenyl]ethyl]amino]imidazo[4,5-g]phthalazin-2-one]: the IC50 is 9.33 nM.
With `COC1(C)C(=O)N(C)c2cc3c(N[C@H](C)c4cc(C)cc(C(F)(F)CO)c4C)nnc(C)c3cc21` (stereo partly drawn) [Compound 182, 3-methoxy-1,3,5-trimethyl-8-[[(1R)-1-[3-(1,1-difluoro-2-hydroxy-ethyl)-2,5-dimethyl-phenyl]ethyl]amino]pyrrolo[2,3-g]phthalazin-2-one], the IC50 is 9.77 nM.
On to `Cc1nnc(N[C@H](C)c2cccc(C(F)(F)C(C)(C)O)c2F)c2cc3c(cc12)N(C)C(=O)C3(C)C` [Compound 98, 1,3,3,8-tetramethyl-5-[[(1R)-1-[3-(1,1-difluoro-2-hydroxy-2-methyl-propyl)-2-fluoro-phenyl]ethyl]amino]pyrrolo[3,2-g]phthalazin-2-one], for which the IC50 is 12 nM.
Still for that read-out and setting: for `Cc1c(-c2cc(C(F)(F)F)nn2C)cccc1[C@@H](C)Nc1nnc(C)c2cc3c(cc12)n(C)c(=O)n3C` [Compound 152, 1,3,8-trimethyl-5-[[(1R)-1-[2-methyl-3-[2-methyl-5-(trifluoromethyl)pyrazol-3-yl]phenyl]ethyl]amino]imidazo[4,5-g]phthalazin-2-one] the value was 85.1 nM; for `Cc1nnc(N[C@H](C)c2cccc(C(F)F)c2F)c2cc3c(cc12)C(C)(C)C(=O)N3C` [Compound 44, 1,3,3,5-tetramethyl-8-[[(1R)-1-[3-(difluoromethyl)-2-fluoro-phenyl]ethyl]amino]pyrrolo[2,3-g]phthalazin-2-one], 8.71 nM; for `COC1(C)C(=O)N(C2CC2)c2cc3c(N[C@H](C)c4cccc(C(F)(F)CO)c4F)nnc(C)c3cc21` (stereo partly drawn) [Compound 122, 1-cyclopropyl-3-methoxy-3,5-dimethyl-8-[[(1R)-1-[3-(1,1-difluoro-2-hydroxy-ethyl)-2-fluoro-phenyl]ethyl]amino]pyrrolo[2,3-g]phthalazin-2-one], 5.75 nM.
On the same count and under the same terms, for `Cc1c([C@@H](C)Nc2nnc(C)c3cc4c(cc23)N(C)C(=O)C42CCCC2)cccc1C(F)(F)C(C)(C)O` [Compound 186, 1′,5′-dimethyl-8′-[[(1R)-1-[3-(1,1-difluoro-2-hydroxy-2-methyl-propyl)-2-methyl-phenyl]ethyl]amino]spiro [cyclopentane-1,3′-pyrrolo[2,3-g]phthalazine]-2′-one] the value was 8.32 nM.

For the origin of these results see patent US20250197407A1 (Jazz Pharmaceuticals Ireland Limited, priority 2022, published 2025).
